Reference: PMC12113347, “Compound 3d Attenuates Metabolic Dysfunction-Associated Steatohepatitis via Peroxisome Proliferator-Activated Receptor Pathway Activation and Inhibition of Inflammatory and Apoptotic Signaling” (Metabolites, 2025)

How the values were obtained:
[1] = in vivo; cited from earlier work
[2] = system: C57BL/6J male mice; test: HFD-induced MASH model in mice: serum and liver biochemistry, body and liver weight, histology; format: in vivo; conditions: HFD mice; for body weight: 8 weeks of treatment; for serum TG levels: 8 weeks, fenofibrate 100 mg/kg, elafibranor 30 mg/kg, 3d 3, 10, 30 mg/kg; for liver weight/body weight: indicator for evaluating drug toxicity
Procedure: All animal studies were conducted in accordance with national legislation and local guidelines at the Center for Laboratory Animals in Tianjin University of Science and Technology and approved by the Animal Ethics Committee of Tianjin University of Science and Technology (8 March 2022, Tianjin, China). The C57BL/6J male mice (6 weeks) were purchased from Henan Scribex Biotechnology Co, Ltd (Zhenzhou, China). Following a one-week period of acclimatization, the mice were fed a high-fat diet (HFD) comprising 60% fat (TP23300, Trophic Animal Feed High-Tech Co., Ltd., (Nantong, China)) and a low-fat control diet (TP23302, Trophic Animal Feed High-Tech Co., Ltd., (Nantong, China)) for 16 weeks.
After 16 weeks of continuous feeding on a high-fat diet, key indicators were tested to determine modeling success and drug administration was initiated. The mice were randomly divided into seven groups (n = 10) according to their body weight. The groups were as follows: control group (control diet, 0.5% CMC-Na), model group (HFD, 0.5% CMC-Na), positive control group (HFD, 100 mg/kg Fenofibrate), elafibranor group (HFD, 30 mg/kg), and 3d group (HFD, 3, 10, 30 mg/kg). The experiment was conducted over a period of eight weeks.
After fasting for 12 h, the mice were anaesthetized and blood samples were collected, as were the mice liver tissues. The ileal contents were collected and immediately frozen in liquid nitrogen and then transferred to storage at −80 °C. The blood samples were subjected to centrifugation at 3000 rpm/min for 10 min to obtain supernatant serum, which was stored at −80 °C. The liver tissues were weighed, and a portion of the liver was preserved in 4% paraformaldehyde for subsequent pathological sectioning, including staining with H&E, Masson, and Oil Red O. The remaining samples were stored at −80 °C for testing of various biochemical indices.
The serum levels of TG, total cholesterol (TC), low-density lipoprotein cholesterol (LDL-C), […] aminotransferase (AST), ALT, and TNF-α were determined according to the instructions of the kit. The levels of glutathione (GSH) and superoxide dismutase (SOD) were measured using liver tissue homogenates. The kits were purchased from the Nanjing Jiancheng Institute of Biological Engineering (Nanjing, China).

[3] = In vitro stability in DMEM medium, simulated gastric fluid and simulated intestinal fluid (HPLC); format: in vitro ADME; conditions: 40 μM, 37 °C
Procedure: Elafibranor and 3d (40 μM) were dissolved in DMEM medium, as well as in simulated gastric fluid (SGF) and simulated intestinal fluid (SIF), respectively, at 37 °C. The concentration of the compounds was determined within 24 h by HPLC. The HPLC conditions comprised an ACQUITY UPLC BEH C18 column maintained at 40 °C with a mobile phase consisting of 20% ultrapure water and 80% acetonitrile, with a flow rate of 1 mL/min at 360 nm.

For `CSc1ccc(C(=O)/C=C/c2cc(C)c(OC(C)(C)C(=O)O)c(C)c2)cc1` [elafibranor, Elafibranor, reference compound], the oral bioavailability [1] is listed as “around 30%”, the “liver steatosis and lipid accumulation (HE, Oil Red O sections)” value [2] is listed as “effective in reducing the degree of steatosis and reducing lipid accumulation better than fenofibrate but still could not bring them back to fully normal” and the body weight [2] is listed as “decrease in body weight”. For the same compound, the “serum TG levels” value [2] was “decreased and returned to normal levels”, the liver weight/body weight [2] was “substantial influence on the rise” and the “concentration in culture medium (stability)” value ([3]; DMEM, within 24 h) was “remained relatively constant”. The “concentration in gastric fluid (stability)” value ([3]; SGF) was “decreased significantly after 60 min” and the “concentration in intestinal fluid (stability)” value ([3]; SIF, within 24 h) was “remained relatively constant”.
With `CC(C)OC(=O)C(C)(C)Oc1ccc(C(=O)c2ccc(Cl)cc2)cc1` [fenofibrate, Fenofibrate, reference compound] the “liver steatosis and lipid accumulation (HE, Oil Red O sections)” value [2] was “improved the steatosis and reduced lipid accumulation in the liver to some extent”, the body weight [2] was “decrease in body weight” and the “serum TG levels” value [2] was “decreased and returned to normal levels”. For the same compound, the liver weight/body weight [2] was “substantial influence on the rise”.
